Tested on: 3T3-L1 cells
Assay: mRNA expression of aP2 and adiponectin in differentiated 3T3-L1 adipocytes (Light Cycler)
Format: cell-based, mouse
Conditions: 7 days after differentiation induction, non-treatment control = 100, average ± standard error
Description: Next, culture preadipocytes 3T3-L1 were thawed, inoculated in a 100 mm dish and cultured until 3T3-L1 cells reached about 80% confluence. A single dish of 3T3-L1 that had reached about 80% confluence was subcultured to a single 6-well plate and further cultured until the 3T3-L1 cells reached confluence in the 6-well plate, and then the medium was replaced with the differentiation induction medium, followed by differentiation induction. 48 hours later, the medium was replaced with the differentiation promotion medium, and thereafter, the medium was replaced with the differentiation promotion medium every two days. 7 days after the initiation of the differentiation induction, mRNA was extracted using Sepasol-RNA I Super (trade name; manufactured by Nacalai Tesque, Inc.), and the mRNA expression amounts of 36B4, aP2 and adiponectin, which were indicators of an early period of adipocyte differentiation, were measured using Light Cycler (TM). Also, the medium 7 days after the differentiation induction was taken in an amount of 1 mL from each well, and the amount of adiponectin in the medium supernatant was measured using a mouse/rat adiponectin ELISA kit (manufactured by Otsuka Pharmaceutical Co., Ltd.).
The medium was removed from the above-described 6-well plate, 1 mL of Sepasol(R)-RNA I Super (manufactured by Nacalai Tesque, Inc.) was added to each well, and pipetting was repeated several times so as to disperse the cells. This solution was transferred to a 1.5 mL tube and allowed to stand for 5 minutes at room temperature, and then 200 μL of chloroform was added, stirred well with a vortex stirrer and allowed to stand for 3 minutes at room temperature. The solution was cooled to 4° C. and centrifuged at 12000×g for 15 minutes. While taking great care not to disturb an interface between a phenol layer (a lower layer, yellow) and a water layer (an upper layer, colorless), the water layer alone was transferred to another tube (with a capacity of 1.5 mL). At this time, care was taken not to take proteins floating between these layers. 500 μL of isopropanol was added to the tube and mixed and allowed to stand for 10 minutes at room temperature. The solution was cooled to 4° C. and centrifuged at 12000×g for 10 minutes, followed by removing about 1 mL of the supernatant. To this precipitate, 1 mL of 75% ethanol was added and stirred to suspend the precipitate sufficiently, and then cooled to 4° C. and centrifuged at 12000×g for 10 minutes, followed by removing the supernatant. The resultant precipitate (total RNA) was dried and then dissolved in 20 μL of nuclease free water, thus measuring the concentration of mRNA using NanoDrop (manufactured by SCRUM Inc.).
The extracted and measured mRNA solution was adjusted to have an mRNA concentration of 1 μg/μL. […]

CC(C)=CCC/C(C)=C/COc1c2ccoc2cc2oc(=O)ccc12 [Bergamottin, bergamottin]
Adiponectin mRNA expression amount (ratio to 36B4) (1 μM): 189.5 ± 9.7 | aP2 mRNA expression amount (ratio to 36B4) (1 μM): 157.5 ± 7.3 | Adiponectin mRNA expression amount (ratio to 36B4) (5 μM): 227.2 ± 16.0 | aP2 mRNA expression amount (ratio to 36B4) (5 μM): 194.6 ± 9.0

From patent US8257755B2, “Metabolic syndrome-improving agent and medicine, supplement, functional food and food additive containing the same” (ARKRAY, Inc., priority 2005, dated 2012)
